Data taken from US12083268B2, “Delivery device and formulation” (Ockham Biotech Limited, priority 2016, dated 2024).
Values joined by “and” are separate entries in the source; they are usually repeats but may differ in a detail not shown here. Equal values may be shown once. Blank lines part the entries; values can stand above or below the compound they belong to.

Tests used:
[1] = Solubility of dexamethasone in NaCl solution with and without heparin; assay type: physicochemical
[2] = in water; reference [7]; cited from earlier work
[3] = Particle size distribution of heparin solutions aerosolised with Aeroneb Go (HELOS KR particle sizer); assay type: physicochemical
Experimental: The particle size distribution of heparin solutions was measured after aerosolisation of the heparin solutions using the Aeroneb® Go nebuliser. Particle size measurements were made using the HELOS KR particle sizer device, INHALER module, and WINDOX 5.0 software from SympatecGmbH (Clausthal-Zellerfeld, Germany). The total volume of solution in the reservoir of the nebuliser was 6 mL: 1.5 mL heparin (Wokhardt, 25,000 IU/mL) with 4.5 mL 0.9% aqueous NaCl (final concentration of heparin=6250 IU/mL or 31.25 mg/mL; final concentration of NaCl=[…]). The viscosity of the solution was 1.7 mPa·s. The nebulisation time was 14 min (reservoir empty); particle size measurements were divided into 1 min intervals. The particle distribution is seen to be bimodal. The X50 is […] (mean±standard deviation), where 50% of the total number of the particles is in particles less than this size. […] Optical concentration (droplets in laser pathway) was used as an indication of nebulisation efficiency; this nebulisation efficiency was determined to be 76.91%±4.25%.
(§1) Aqueous solutions of unfractionated heparin as its sodium salt containing various concentrations of an added inorganic salt were also aerosolised using the Aeroneb® Go. Particle size measurements were made using the HELOS KR particle sizer device, INHALER module, and WINDOX 5.0 software from SympatecGmbH (Clausthal-Zellerfeld, Germany). The heparin sodium salt was obtained from pig intestinal mucosa (Calbiochem, molecular weight 12-15 kDa, 192 U/mg). The particle size distributions are shown in FIGS. 2-7 and the important parameters, quoted as mean values ±standard deviations, are summarised in Table 4 below.
A 40 mg/mL aqueous solution of heparin containing 140 mM NaCl was aerosolised using the Aeroneb® Go nebuliser in the absence and presence of salbutamol (a bronchodilator) and dexamethasone (a corticosteroid). Particle size measurements were made using the HELOS KR particle sizer device, INHALER module, and WINDOX 5.0 software from SympatecGmbH (Clausthal-Zellerfeld, Germany).

[4] = HPLC of unfractionated heparin before and after nebulisation with PARI eFlow; assay type: physicochemical; conditions: 0.25 mg/mL (50 U/mL) in water
Experimental: A solution of unfractionated heparin (diluted to 50 U/mL, i.e. 0.25 mg/mL, in ultra high quality water) was analysed by high performance liquid chromatography. HPLC analysis was performed using a […] ion-paring C8 column (Hichrom, Reading, UK), a Rheodyne 7725 syringe loading sample injector fitted with a 20 μL loop (Rheodyne, Cotati, CA, USA), a LKB2150 dual piston pump (LK Bromma, Swedon), a HP 1050CVW detector (Agilent, UK), a HP 3396A integrator (Agilent, UK) and a Rheodyne 25 μL capacity syringe was used to load a 20 μL sample into the injection port. HPLC conditions consisted of an ultraviolet wavelength selected at 232 nm. The flow rate was adjusted to 0.50 mL/min and a pressure of 50 bar was recorded. A mobile phase composed of 30% acetonitrile and 70% aqueous solution comprising 15 mM tetrabutylammonium hydroxide and 50 mM ammonium acetate in HPLC grade water, adjusted to pH 7 with acetic acid, was used. The resulting HPLC trace is shown as the left-hand trace in FIG. 11.
An identical sample of unfractionated heparin was nebulised using the PARI eFlow® device, and recollected. […] The resulting HPLC trace is shown as the right-hand trace in FIG. 11.

[5] = Viscosity of heparin salt solutions (BS/U-tube viscometer); assay type: physicochemical
[6] = Anti-coagulant activity after nebulisation from PARI eFlow
Description: In an additional experiment, it was also observed that the anti-coagulant activity of the unfractionated heparin was retained after nebulisation from the PARI eFlow® device.

[7] = Physicochemical characterisation of heparin solutions in water
Experimental: Tests for viscosity, surface tension and osmolality were carried out in triplicate. For pH and density single measurements were performed.

[8] = Viscosity of heparin salt solutions (BS/U-tube viscometer); assay type: physicochemical; conditions: 40 mg/mL heparin
Description: as §1

[9] = Laser diffraction of aerosol from heparin solutions nebulised with PARI eFlow; assay type: physicochemical
Experimental: There is a moderate increase from 1.25±0.01 to 1.99±0.02 mPa·s between 6 and 30 mg/mL and a strong increase to 8.9±0.08 mPa·s when the concentration is further increased to 150 mg/mL. The surface tension (nearly equal to that of water) remains constant between 6 and 30 mg/mL and increases only slightly (from 72.41±0.02 to 73.78±0.05 mN/m) between 30 and 150 mg/mL. As expected the osmolality increases with increasing concentration, going from 0.014±0.001 to 0.293±0.001 osmol/kg over the investigated concentration range. […] All formulations show a pH (between 5.97 and 6.50) which would be appropriate for inhalation (the allowed range according to the European Pharmacopoeia is pH 3.0-8.5). The heparin solutions were nebulised using a PARI eFlow® device configured with Head class 40, which typically results in droplet sizes from 4.0-4.9 μm when using dilute aqueous formulations. The properties of the resultant aerosol particles were measured using laser diffraction, and are compared with the results obtained for isotonic saline measured using the same nebuliser configuration in Table 2.

[10] = 31.25 mg/mL heparin, 154 mM NaCl, Aeroneb Go
[11] = 40 mg/mL heparin, 112 mM NaCl, 56 mM MgCl2, Aeroneb Go
[12] = 40 mg/mL heparin, 140 mM NaCl, Aeroneb Go
[13] = 40 mg/mL heparin, 168 mM NaCl, Aeroneb Go
[14] = 40 mg/mL heparin, 196 mM NaCl, Aeroneb Go
[15] = 40 mg/mL heparin, 210 mM NaCl, Aeroneb Go
[16] = 40 mg/mL heparin, 224 mM NaCl, Aeroneb Go
[17] = 40 mg/mL unfractionated heparin, 140 mM NaCl, 0.75 mg/mL dexamethasone, Aeroneb Go
[18] = 40 mg/mL unfractionated heparin, 140 mM NaCl, 0.83 mg/mL salbutamol, Aeroneb Go
[19] = 40 mg/mL unfractionated heparin, 140 mM NaCl, no second agent, Aeroneb Go

solubility (in words) ([1]; 0.25 mg/mL in 140 mM NaCl alone): not soluble | solubility (in words) ([1]; in 140 mM NaCl containing 40 mg/mL heparin): soluble
Compound: C[C@@H]1C[C@H]2[C@@H]3CCC4=CC(=O)C=C[C@]4(C)[C@@]3(F)[C@@H](O)C[C@]2(C)[C@@]1(O)C(=O)CO [dexamethasone]

X50 [3, 10]: 3.45 ± 0.025 µm | X90 [3, 10]: less than 8.5 m | particles within the respirable range of 1-5 μm [3, 10]: 57.87% | Particles in 1-5 μm range [3, 11]: 58.46% and 58.46 ± 0.30% | VMD (volume median diameter) [3, 11]: 4.31 ± 0.05 μm | X50 [3, 11]: 3.49 ± 0.056 μm | Particles in 1-5 μm range [3, 12]: 50.76% and 50.76 ± 0.63% | VMD (volume median diameter) [3, 12]: 4.80 ± 0.06 μm | X50 [3, 12]: 4.095 ± 0.044 μm | X50 ([3]; 40 mg/mL heparin, 140 mM NaCl, no second agent, Aeroneb Go (as restated in conclusions)): 3.98±0.03 μm | VMD ([3]; 40 mg/mL heparin, 140 mM NaCl, with salbutamol, Aeroneb Go (as restated in conclusions)): 4.47 μm | Particles in 1-5 μm range [3, 13]: 56.65% and 56.65 ± 0.47% | VMD (volume median diameter) [3, 13]: 4.41 ± 0.025 μm | X50 [3, 13]: 3.543 ± 0.049 μm | Particles in 1-5 μm range [3, 14]: 48.62% and 48.62 ± 0.38% | VMD (volume median diameter) [3, 14]: 4.68 ± 0.02 μm | X50 [3, 14]: 3.978 ± 0.022 μm | Particles in 1-5 μm range [3, 15]: 55% and 55 ± 0.24% | VMD (volume median diameter) [3, 15]: 4.55 ± 0.023 μm | X50 [3, 15]: 3.812 ± 0.027 μm | Particles in 1-5 μm range [3, 16]: 57.02% and 57.02 ± 0.28% | VMD (volume median diameter) [3, 16]: 4.37 ± 0.032 μm | X50 [3, 16]: 3.51 ± 0.03 μm | VMD [3, 17]: 4.61 ± 0.058 µm | X50 [3, 17]: 3.906±0.048 μm | particles within the respirable range of 1-5 m [3, 17]: 49.954% | VMD [3, 18]: 4.47 ± 0.054 µm | X50 [3, 18]: 3.546±0.045 μm | particles within the respirable range of 1-5 m [3, 18]: 55.154% | VMD [3, 19]: 4.64±0.033 μm | X50 [3, 19]: 3.98 ± 0.03 µm | particles within the respirable range of 1-5 μm [3, 19]: 48.21% | structural integrity / degradation on nebulisation (HPLC traces before vs after) [4]: does not lead to degradation | Viscosity ([5]; 31.25 mg/mL (6250 IU/mL) heparin, 154 mM NaCl): 1.7 mPa·s | Viscosity ([5]; 40 mg/mL unfractionated heparin, 140 mM NaCl (Example 3)): 2.2 mPa·s | Viscosity ([7]; 6 mg/mL heparin in water): 1.25±0.01 mPa · s and 1.25 mPa · s | density ([7]; 6 mg/mL heparin in water): 1.00 g/mL | osmolality ([7]; 6 mg/mL heparin in water): 0.014±0.001 osmol/kg and 0.014 osmol/kg | pH ([7]; 6 mg/mL heparin in water): 6.50 | surface tension ([7]; 6 mg/mL heparin in water): 72.58 mN/m | Viscosity ([7]; 30 mg/mL heparin in water): 1.99±0.02 mPa · s and 1.99 mPa · s | density ([7]; 30 mg/mL heparin in water): 1.01 g/mL | osmolality ([7]; 30 mg/mL heparin in water): 0.056 osmol/kg | pH ([7]; 30 mg/mL heparin in water): 6.01 | surface tension ([7]; 30 mg/mL heparin in water): 72.41±0.02 mN/m and 72.41 mN/m | Viscosity ([7]; 150 mg/mL heparin in water): 8.9±0.08 mPa · s and 8.90 mPa · s | density ([7]; 150 mg/mL heparin in water): 1.07 g/mL | osmolality ([7]; 150 mg/mL heparin in water): 0.293±0.001 osmol/kg and 0.293 osmol/kg | pH ([7]; 150 mg/mL heparin in water): 5.97 | surface tension ([7]; 150 mg/mL heparin in water): 73.78±0.05 mN/m and 73.78 mN/m | Viscosity ([8]; 0 mM NaCl, 0 mM MgCl2): 2.5 mPa · s | Viscosity ([8]; 112 mM NaCl, 56 mM MgCl2): 2 mPa · s and 2.0 mPa · s | Viscosity ([8]; 140 mM NaCl): 2.22 mPa · s | Viscosity ([8]; 168 mM NaCl): 2.25 mPa · s | Viscosity ([8]; 196 mM NaCl): 2.2 mPa · s | Viscosity ([8]; 210 mM NaCl): 2.2 mPa · s | Viscosity ([8]; 224 mM NaCl): 2 mPa · s and 2.0 mPa · s | MMD (median mass diameter) ([9]; 6 mg/mL heparin): 4.6 μm | RF (respirable fraction) [% <5 μm] ([9]; 6 mg/mL heparin): 57.9% | MMD (median mass diameter) ([9]; 30 mg/mL heparin): 4.4 μm | RF (respirable fraction) [% <5 μm] ([9]; 30 mg/mL heparin): 63.0%
Compound: heparin
intrinsic viscosity [2]: 80.6 mL/g | anti-coagulant activity after nebulisation [6]: retained
